Measurements published in patent publication US20110165092A1, “COSMETIC AND/OR DERMATOLOGICAL COMPOSITION” (Universite de la Mediterranee, Aix-Marseille II, priority 2008, published 2011).

Legend:
[1] = system: control fibroblasts; test: Nuclear morphology of control mice cells in culture; type: cell-based, mouse; conditions: FIG. 12b
Source text: (§1) The dermal fibroblasts of a control subject (GM00038) and of patients afflicted with progeria and carriers of the G608G mutation (AG11498 and AG01972) were obtained from the Coriell Cell Repository. The HeLa cells came from the American Type Culture Collection. The cells were cultivated in DMEM (Gibco) supplemented with 10% FBS (Gibco) and 1% antibiotic-antimycotic (Gibco). The fibroblasts came from 12-day old mice tails (Varela et al., 2005). The concentration and the length of the treatment with the statin and the aminobiphosphonate are indicated in the legend to the figures. During the combined treatment with statin+aminobiphosphonate in the presence of farnesol and/or geranylgeraniol, 1 mM of pravastatin and 1 mM of zoledronate were added to the culture medium with increasing concentrations of farnesol and/or geranylgeraniol. The percentage of abnormal nuclei was measured 48 hours after the start of the treatment.
(§2) Quantification of the effect of pravastatin (1 μM) and zoledronate (1 μM) combined or uncombined on the nuclear morphology of Zmpste24^−/− mice (a) and control mice (b) cells in culture, in the presence of farnesol, geranylgeraniol or both molecules.

[2] = system: Zmpste24−/− cells; test: Nuclear morphology of Zmpste24−/− mice cells in culture; type: cell-based, mouse; conditions: pravastatin 1 μM and zoledronate 1 μM, alone or in combination, FIG. 12a
Source text: as §1, §2

[3] = system: progeria patient cells; test: Immunocytochemistry, nuclear morphology of progeria patient cells; type: cell-based, human; conditions: abnormal nuclei 48 hours after start, FIG. 10d
Source text: as §1, with “During the combined treatment with statin+aminobiphosphonate in the presence of farnesol and/or geranylgeraniol, 1 mM of pravastatin and 1 mM of zoledronate were added to the culture medium with increasing concentrations of farnesol and/or geranylgeraniol.” left out, “treatment. […]” for “treatment.”
The dilution of primary antibodies was 1:100 for the polyclonal goat anti-prelamin A antibody Sc-6214, Santa Cruz Biotechnologies), 1:40 for the anti-lamin A/C antibody (4A7 supplied by G. Morris), 1:200 for the anti-calreticulin rabbit antibody (Stressgen) and 1:100 for the anti-lamin B1 antibody (Abcam). […] Digital images were recorded with a Leica DMR microscope equipped with a CoolSnap camera or with a Leica TCS SP5 confocal microscope. […] More than 100 nuclei were analysed in control fibroblasts for each of the treatments. The number of cell nuclei of patients afflicted with progeria which was analysed was 250 (passage 8), 198 (passage 13) and 150 (passage 20). […]

[4] = system: healthy cells; test: Immunohistochemistry dose- and time-response on healthy control cells; type: cell-based, human; conditions: 100 μM pravastatin for 12 hours, 20 μM zoledronate for 6 hours, FIG. 3; for rate of prelamin A produced in treated healthy cells: in combination or singly
Method: Labtech style culture wells (Nunc, Ref. 177399) are seeded, at the rate of 5×10^4 cells per well.
The complete culture medium is supplemented with the treatment or treatments (statin, NBP, both), and the cells are cultivated for the ad hoc time.
The cells are fixed in a 4% paraformaldehyde solution (in PBS) for 10 minutes at ambient temperature.
The primary antibody is diluted to 1/100th in 50 μl of incubating solution and placed in contact with the cells for 1 hour at ambient temperature in a moisture chamber.
The primary antibodies used are of 2 types: • Anti-lamin A/C mouse (N-terminal side), clone 4A7, donation from G. Morris (Oswestry, UK) • Anti-prelamin A goat (15 aa C-terminal end), product SC6214, Santa Cruz Biotechnology, Inc. • 3 rinsings of 15 min each are carried out in 50 μl of 1× PBS.
The cells are immersed in a drop of VectaShield (Vector), covered with a cover glass and observed under a fluorescence microscope (Leica DMR, Leica Microsystems), equipped with a coolSNAP camera system (Princeton).
Dose-response and time-response curves made it possible to determine maximum effectiveness by measuring 2 parameters on healthy control cells, on the one hand, and then on HGPS patient cells.

[5] = system: Zmpste24−/− mice; test: Progeroid phenotype of Zmpste24−/− mice (Example 9); type: in vivo, mouse; conditions: daily treatment, FIG. 15
Method: Pravastatin (100 mg/kg/day) and zoledronate (100 mg/kg/day) diluted in PBS were administered to the mice every day.
The difference between the various groups of treated or untreated mice and cells was analysed using the t-test. The calculations were made with the Microsoft Excel program. The data was expressed as a mean±standard error of the mean (SEM).

| Structure (SMILES) | effect on nuclear morphology of control fibroblasts [1] | influence on the effect of the pravastatin+zoledronate treatment on nuclear morphology [2] | influence on the effect of the pravastatin+zoledronate treatment on nuclear morphology [3] | rate of prelamin A produced in treated healthy cells [4] [%] | lifespan of the Zmpste24−/− mice, each drug separately [5] | rate of deformed nuclei (a sign of toxicity in healthy cells) [4] |
| --- | --- | --- | --- | --- | --- | --- |
| CC(C)=CCCC(C)=CCCC(C)=CCO [farnesol] | Neither farnesol nor geranylgeraniol produces any effect on control fibroblasts | abolish the effect of the pravastatin+zoledronate treatment on the nuclear morphology | abolishes the effect of the pravastatin+zoledronate treatment | – | – | – |
| O=P(O)(O)C(O)(Cn1ccnc1)P(=O)(O)O [zoledronate, (1-hydroxy-2-imidazol-1-yl-1-phosphono-ethyl)phosphonic acid] | – | – | – | 15 | does not improve the lifespan | – |
| CC[C@H](C)C(=O)O[C@H]1C[C@H](O)C=C2C=C[C@H](C)[C@H](CC[C@@H](O)C[C@@H](O)CC(=O)O)[C@H]21 [pravastatin] | – | – | – | 25 | – | approximately 12% |
| CC(C)=CCC/C(C)=C/CC/C(C)=C/CC/C(C)=C/CO [geranylgeraniol] | Neither farnesol nor geranylgeraniol produces any effect on control fibroblasts | abolish the effect of the pravastatin+zoledronate treatment on the nuclear morphology | also blocks the effect of the treatment | – | – | – |
